Laboratory results taken from the supplement of paper PMC10307832.

What was measured:
Assay in all cases: relative viability (nuclei count vs DMSO), 5 days (fraction); higher = more cells survive
[1] = test system: EMC-BAC-2
Outline: (§1)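 Lung cancer cell lines were seeded in 1536-well plates and dosed by pin tool the next day, with either a single drug or a fixed anchor-drug dose combined with five library-drug doses (not always all listed) spaced in √10 steps. Five days later, one step fixed the cells and stained their nuclei (final 0.05% Triton X-100, 1% formaldehyde, 1 ug/ml Hoechst), and nuclei were counted on 4× images. Relative viability is the nuclei count in treated wells divided by the count in vehicle wells, and each value is the median of duplicate plates.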

[2] = test system: NCI-H2347
Outline: as §1

[3] = test system: NCI-H727
Outline: as §1

[4] = test system: NCI-H1993
Outline: as §1

[5] = test system: NCI-H1734
Outline: as §1

[6] = test system: NCI-H2009
Outline: as §1

[7] = test system: NCI-H1915
Outline: as §1

[8] = test system: LXF-289
Outline: as §1

[9] = test system: EPLC-272H
Outline: as §1

[10] = test system: NCI-H1563
Outline: as §1

[11] = test system: NCI-H322M
Outline: as §1

[12] = test system: NCI-H2126
Outline: as §1

[13] = test system: NCI-H2023
Outline: as §1

[14] = test system: NCI-H661
Outline: as §1

[15] = test system: PC-14
Outline: as §1

[16] = test system: SW 1573
Outline: as §1

[17] = test system: LCLC-97TM1
Outline: as §1

[18] = test system: NCI-H647
Outline: as §1

[19] = test system: H3255
Outline: as §1

[20] = test system: SK-LU-1
Outline: as §1

[21] = test system: HOP-62
Outline: as §1

[22] = test system: NCI-H2085
Outline: as §1

Nc1ccn([C@@H]2O[C@H](CO)[C@@H](O)[C@@H]2O)c(=O)n1 [Cytarabine] + Cc1nc(Nc2ncc(C(=O)Nc3c(C)cccc3Cl)s2)cc(N2CCN(CCO)CC2)n1 [Dasatinib] (partner 0.075 µM)
relative viability ([1]; first compound 0.005 µM): 0.344 | relative viability ([1]; first compound 0.01581 µM): 0.278 | relative viability ([1]; first compound 0.05 µM): 0.203 | relative viability ([1]; first compound 0.1581 µM): 0.154 | relative viability ([1]; first compound 0.5 µM): 0.113 | relative viability ([2]; first compound 0.005 µM): 0.321 | relative viability ([2]; first compound 0.01581 µM): 0.307 | relative viability ([2]; first compound 0.05 µM): 0.241 | relative viability ([2]; first compound 0.1581 µM): 0.274 | relative viability ([2]; first compound 0.5 µM): 0.201 | relative viability ([3]; first compound 0.005 µM): 0.319 | relative viability ([3]; first compound 0.01581 µM): 0.303 | relative viability ([3]; first compound 0.05 µM): 0.447 | relative viability ([3]; first compound 0.1581 µM): 0.271 | relative viability ([3]; first compound 0.5 µM): 0.294 | relative viability ([4]; first compound 0.005 µM): 0.74 | relative viability ([4]; first compound 0.01581 µM): 0.58 | relative viability ([4]; first compound 0.05 µM): 0.523 | relative viability ([4]; first compound 0.1581 µM): 0.49 | relative viability ([4]; first compound 0.5 µM): 0.425 | relative viability ([5]; first compound 0.005 µM): 0.419 | relative viability ([5]; first compound 0.01581 µM): 0.221 | relative viability ([5]; first compound 0.05 µM): 0.218 | relative viability ([5]; first compound 0.1581 µM): 0.125 | relative viability ([5]; first compound 0.5 µM): 0.113 | relative viability ([6]; first compound 0.005 µM): 0.304 | relative viability ([6]; first compound 0.01581 µM): 0.275 | relative viability ([6]; first compound 0.05 µM): 0.295 | relative viability ([6]; first compound 0.1581 µM): 0.192 | relative viability ([6]; first compound 0.5 µM): 0.146 | relative viability ([7]; first compound 0.005 µM): 0.366 | relative viability ([7]; first compound 0.01581 µM): 0.29 | relative viability ([7]; first compound 0.05 µM): 0.273 | relative viability ([7]; first compound 0.1581 µM): 0.183 | relative viability ([7]; first compound 0.5 µM): 0.181 | relative viability ([8]; first compound 0.005 µM): 0.221 | relative viability ([8]; first compound 0.01581 µM): 0.202 | relative viability ([8]; first compound 0.05 µM): 0.171 | relative viability ([8]; first compound 0.1581 µM): 0.112 | relative viability ([8]; first compound 0.5 µM): 0.0684 | relative viability ([9]; first compound 0.005 µM): 0.304 | relative viability ([9]; first compound 0.01581 µM): 0.241 | relative viability ([9]; first compound 0.05 µM): 0.211 | relative viability ([9]; first compound 0.1581 µM): 0.113 | relative viability ([9]; first compound 0.5 µM): 0.0979 | relative viability ([10]; first compound 0.005 µM): 0.506 | relative viability ([10]; first compound 0.01581 µM): 0.466 | relative viability ([10]; first compound 0.05 µM): 0.46 | relative viability ([10]; first compound 0.1581 µM): 0.383 | relative viability ([10]; first compound 0.5 µM): 0.393 | relative viability ([11]; first compound 0.005 µM): 0.259 | relative viability ([11]; first compound 0.01581 µM): 0.272 | relative viability ([11]; first compound 0.05 µM): 0.26 | relative viability ([11]; first compound 0.1581 µM): 0.243 | relative viability ([11]; first compound 0.5 µM): 0.274 | relative viability ([12]; first compound 0.005 µM): 0.516 | relative viability ([12]; first compound 0.01581 µM): 0.55 | relative viability ([12]; first compound 0.05 µM): 0.429 | relative viability ([12]; first compound 0.1581 µM): 0.378 | relative viability ([12]; first compound 0.5 µM): 0.32 | relative viability ([13]; first compound 0.005 µM): 0.315 | relative viability ([13]; first compound 0.01581 µM): 0.219 | relative viability ([13]; first compound 0.05 µM): 0.145 | relative viability ([13]; first compound 0.1581 µM): 0.107 | relative viability ([13]; first compound 0.5 µM): 0.0893 | relative viability ([14]; first compound 0.005 µM): 0.636 | relative viability ([14]; first compound 0.01581 µM): 0.529 | relative viability ([14]; first compound 0.05 µM): 0.516 | relative viability ([14]; first compound 0.1581 µM): 0.358 | relative viability ([14]; first compound 0.5 µM): 0.283 | relative viability ([15]; first compound 0.005 µM): 0.232 | relative viability ([15]; first compound 0.01581 µM): 0.234 | relative viability ([15]; first compound 0.05 µM): 0.18 | relative viability ([15]; first compound 0.1581 µM): 0.0381 | relative viability ([15]; first compound 0.5 µM): 0.0648 | relative viability ([16]; first compound 0.005 µM): 0.34 | relative viability ([16]; first compound 0.01581 µM): 0.333 | relative viability ([16]; first compound 0.05 µM): 0.381 | relative viability ([16]; first compound 0.1581 µM): 0.122 | relative viability ([16]; first compound 0.5 µM): 0.089 | relative viability ([17]; first compound 0.005 µM): 0.795 | relative viability ([17]; first compound 0.01581 µM): 0.839 | relative viability ([17]; first compound 0.05 µM): 0.798 | relative viability ([17]; first compound 0.1581 µM): 0.227 | relative viability ([17]; first compound 0.5 µM): 0.264 | relative viability ([18]; first compound 0.005 µM): 0.104 | relative viability ([18]; first compound 0.01581 µM): 0.0553 | relative viability ([18]; first compound 0.05 µM): 0.0872 | relative viability ([18]; first compound 0.1581 µM): 0.0307 | relative viability ([18]; first compound 0.5 µM): 0.0339 | relative viability ([19]; first compound 0.005 µM): 0.363 | relative viability ([19]; first compound 0.01581 µM): 0.3 | relative viability ([19]; first compound 0.05 µM): 0.273 | relative viability ([19]; first compound 0.1581 µM): 0.199 | relative viability ([19]; first compound 0.5 µM): 0.319 | relative viability ([20]; first compound 0.005 µM): 0.179 | relative viability ([20]; first compound 0.01581 µM): 0.157 | relative viability ([20]; first compound 0.05 µM): 0.17 | relative viability ([20]; first compound 0.5 µM): 0.147 | relative viability ([21]; first compound 0.005 µM): 0.58 | relative viability ([21]; first compound 0.01581 µM): 0.531 | relative viability ([21]; first compound 0.05 µM): 0.421 | relative viability ([21]; first compound 0.1581 µM): 0.157 | relative viability ([21]; first compound 0.5 µM): 0.11 | relative viability ([22]; first compound 0.005 µM): 0.202 | relative viability ([22]; first compound 0.01581 µM): 0.263 | relative viability ([22]; first compound 0.05 µM): 0.2 | relative viability ([22]; first compound 0.1581 µM): 0.188 | relative viability ([22]; first compound 0.5 µM): 0.2
